Results from patent publication US20240197911A1, “Oral Pharmaceutical Composition, Method for Fabricating Thereof, and Kit for Treating Cancer” (National Tsing Hua University, priority 2022, published 2024).

Columns and labels:
[1] = test system: RAW264.7 cells; experiment: Cellular uptake and trafficking by Mφ in vitro (CLSM); format: cell-based, murine; conditions: 10 μg/mL DOX
Description: To investigate whether the oral pharmaceutical composition of the present disclosure can be phagocytosed and carried by Mφ, the cellular uptake and trafficking of free DOX, Comparative Example or Example 1 by Mφ in vitro are observed first. RAW264.7 cells, a murine Mφ cell line, are seeded in an eight-well chamber slide (ibidi) at a density of 5×10^4 cells per well and incubated overnight. The cells are then treated with each of the test samples at an equivalent dose of DOX (10 μg/mL). Following incubation for pre-determined periods (0, 2, 4, and 6 hours), test cells are washed with Dulbecco's phosphate-buffered saline (DPBS) and stained with LysoTracker™ Deep Red (Invitrogen) and Hoechst 33342 (Abcam) for 30 minutes in the incubator. The stained cells are then examined using confocal laser scanning microscopy (CLSM) (LSM 780, Carl Zeiss) to track the localization and accumulation of free DOX, the DOX fluorescent signal of Comparative Example or Example 1, and to determine the cell regulation process of free DOX, Comparative example and Example 1 in the RAW264.7 cells.

[2] = test system: RAW264.7 cells; experiment: Cytotoxicity on Mφ; format: cell-based, murine; conditions: different DOX concentrations, 24 hours
Description: The capacity of Mφ as a hitchhiking vehicle is strongly correlated with their viability following the uptake of drug-encapsulated particles. Therefore, the cytotoxicity of Example 1 on Mφ are further evaluated. The RAW264.7 cells are incubated with Comparative Example or Example 1 including different DOX concentrations for 24 hours, and the RAW264.7 cells treated with the same concentration of free DOX are used as Control (represents as “DOX”).

[3] = test system: orthotopic PDAC mice; experiment: Antitumor efficacy of different treatments; format: in vivo
From the text: To evaluate the antitumor efficacy of different treatments, the orthotopic PDAC mice are randomly assigned to the following groups: untreated control group (hereinafter referred to as “Control”), orally administered β-glucan group (hereinafter referred to as “βGlus”), intravenous injected DOX group (hereinafter referred to as “DOX”), orally administered Comparative Example group (hereinafter referred to as “Comparative Example”), and orally administered Example 1 group (hereinafter referred to as “Example 1”). In the groups of DOX, Comparative Example and Example 1, the DOX content of each dose is 10 mg/kg, while in the groups of βGlus and Example 1, the content of β-glucan of each dose is 40 mg/kg. The body weight changes of the orthotopic PDAC mice are recorded every other day. On day 21, the orthotopic PDAC mice are euthanized and their tumors are retrieved for analysis.

COc1cccc2c1C(=O)c1c(O)c3c(c(O)c1C2=O)C[C@@](O)(C(=O)CO)C[C@@H]3O[C@H]1C[C@H](N)[C@H](O)[C@H](C)O1 [DOX, doxorubicin]
accumulation of DOX fluorescence in the cell nuclei [1]: accumulated in their nuclei
cell viability [2]: decreases substantially in a dose-dependent manner
tumor volume ([3]; day 21, three doses, DOX 10 mg/kg, β-glucan 40 mg/kg per dose, compared with Control): substantially reduces tumor volumes
body weight ([3]; intravenous DOX 10 mg/kg per dose, P<0.05): serious loss of body weight
